# Assay results from patent publication US5985937A, “Use of 2,4-distributed phenol derivatives as 5-lipoxygenase inhibitors” (priority 1994, dated 1999).
# pIC50: −log10 of the molar value. “Also recorded” adds a separate entry of the source.
# Experiments:
# [1] = target: T1, 5-lipoxygenase (5-LO) (Homo sapiens, UniProt P09917); assay: 5-LO inhibiting activity in human polymorphonuclear leukocytes ([14C]-arachidonic acid, A23187; HPLC of eicosanoids); type: cell-based
# T1 construct: endogenous in cells; host or cells: human polymorphonuclear leukocytes from donor blood
# T1 sequence (P09917 1-674): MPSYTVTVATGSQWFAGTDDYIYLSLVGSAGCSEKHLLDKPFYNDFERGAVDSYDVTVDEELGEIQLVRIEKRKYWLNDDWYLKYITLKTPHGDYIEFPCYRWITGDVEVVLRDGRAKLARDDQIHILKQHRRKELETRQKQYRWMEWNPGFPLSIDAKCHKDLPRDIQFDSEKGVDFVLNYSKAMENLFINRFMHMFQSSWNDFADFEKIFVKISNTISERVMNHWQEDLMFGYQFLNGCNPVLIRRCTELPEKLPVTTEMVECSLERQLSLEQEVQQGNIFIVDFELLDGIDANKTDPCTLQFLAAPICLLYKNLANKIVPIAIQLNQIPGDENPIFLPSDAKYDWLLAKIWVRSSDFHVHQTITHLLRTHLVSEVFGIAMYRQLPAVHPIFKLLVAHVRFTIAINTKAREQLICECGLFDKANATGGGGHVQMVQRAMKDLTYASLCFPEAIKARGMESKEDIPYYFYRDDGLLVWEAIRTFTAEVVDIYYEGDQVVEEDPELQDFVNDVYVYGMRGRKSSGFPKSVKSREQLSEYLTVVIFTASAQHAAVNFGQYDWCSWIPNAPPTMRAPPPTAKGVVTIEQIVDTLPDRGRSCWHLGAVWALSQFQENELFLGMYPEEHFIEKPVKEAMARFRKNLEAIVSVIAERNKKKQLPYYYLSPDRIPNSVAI
# Protocol: In order to show the 5-LO inhibiting activity of the products of the present invention, a specific test based on human polymorphonuclear leukocytes is chosen.
# 5-LO Inhibiting Activity in Polymorphonuclear Leukocytes
# Blood was obtained from donors which had not received medication during the ten days previous to the extraction. The blood was treated with an anticoagulant (ACD-A) and was centrifuged at 200 g during 12 min at room temperature, separating the supernatant. A solution of Dextran T-500 in physiological serum was added to the pellet, in order to obtain a final concentration of 0.6% w/v, and was allowed to sediment during 40 min. The supernatant was centrifuged at 180 g during 10 min at room temperature. The pellet was resuspended in 5 ml of Hank's buffer, pH 7.4. After the addition of 3 ml of Lymphoprep, the suspension was centrifuged at 450 g during 30 min, and the layers of supernatant were discarded. The next step was the lysis of the erythrocytes present by adding 2 ml of a saline solution. The resulting volume was adjusted to 10 ml with Hank's buffer, pH 7.4. The solution was centrifuged during 10 min at 180 g; the supernatant was discarded and the resulting pellet was resuspended in 1-2 ml of Hank's buffer, pH 7.4. The cellular density was determined using a haemocytometer using the procedure of microcollection Unopette to determine the levels of platelet contamination. Cellular density was adjusted to 2×10^7 cells/ml with Hank's buffer, pH 7.4 and CaCl2 was added to a final concentration of 1.5 mM.
# Aliquots (0.5 ml) of the polymorphonuclear leukocytes suspensions, obtained as described in part (a), were incubated during 5 min at 37° C. in the absence (control) and in the presence of three different concentrations of each drug. Afterwards an ethanol solution of [^14 C]-arachidonic acid and A23187 ionophore was added to obtain a final concentration of 10 and 5 μM, respectively. After 5 min of incubation the reaction was stopped by addition of 0.5 ml of ice-cold ethanol. Samples were centrifuged during 2 min at 1500 g, and the supernatants were kept at -80° C. until analyzed. Controls were carried out using the polymorphonuclear leukocyte suspensions aliquots in the presence of the solvent (DMSO) only.
# The analysis of the products from the transformation of arachidonic acid through the action of the lipoxygenase (these products being the eicosanoids) was carried out using high pressure liquid chromatography (HPLC), in a reverse phase column (Ultrasphere-ODS, Beckman), injecting 500 μl of the supernatants obtained from the incubations. Elution was carried out using an isocratic mix of mathanol:water:triethylamine:trifluoroacetic acid, 75:25:0.05:0.10, with a flux of 1 ml/min. Detection was carried out with a radioactivity detector with a liquid scintillation cell on-line coupled with the column.
# [2] = tested on: rheumatoid arthritis, hip dysplasia, equine cauda, deforming spondolitis or coxarthrosis; assay: treatment of dogs with articular or musculoskeletal diseases; type: in vivo, dog; conditions: twenty dogs, oral 1-3 mg/kg.day
# [3] = tested on: cyclooxygenase; conditions: in words; cited from earlier work
# [4] = tested on: rats; assay: chronic toxicity in rats; type: in vivo, rat; conditions: 350 mg/kg.day, 6 months; hematological, biochemical, anatomy-pathological
# [5] = tested on: canine seborrheic dermatitis; assay: clinical trial on canine seborrheic dermatitis; type: in vivo, dog; design: key to Evolution, etiology idiopathic / Evolution, etiology demodex / Evolution, etiology follicular cyst / Evolution, etiology pyoderma / Evolution, etiology dermatomycosis / Evolution, etiology allergic to fleas / Evolution, etiology hypothyroidism / Evolution, etiology leishmaniosis: +++: very good response, clinically cured; ++: good response, marked lowering in the clinical signs; +: moderate response, improvement; -: negative response or no apparent improvement; key to Evolution, etiology dermatophytes: +++: very good response, total recovery; ++: good response, functionability recovery; +: moderate response, improvement; -: negative response or no apparent improvement
# Protocol: The animals had been diagnosed to suffer from seborrheic dermatitis, and the diagnosis was confirmed by a biopsy. The treatment consisted of a weekly bath with a 2% Bobel-24 shampoo and evaluation of the treatment after 15 days. The efficiency of the treatment was analyzed evaluating the following therapeutic symptoms; removal of scabs and scales, greasiness reduction, sheborrheic odor reduction, relieve of the pruritus, and antiinflammatory effect. […] In view of the results the following conclusions were reached: […]
# [6] = tested on: bursitis; assay: treatment of horses with bursitis; type: in vivo, horse; conditions: seven young horses, 15 mg/day intraarticular infiltration
# [7] = acute toxicity in Sprague-Dawley rats; conditions: rat, in vivo, po
# [8] = weekly bath 2% shampoo, 15 days, Scotty T 4 years
smiles,measurement,setting,value
"Oc1c(I)cc(I)cc1I [Bobel-24, 2,4,6-triiodophenol]",pIC50,[1],5.00
same,products derived from 5-LO biosynthesis (chromatogram),"[1]; 25 μM, arachidonic acid 10 μM, FIG. 2",practically complete disappearance of the products derived from 5-LO biosynthesis
same,15-HETE and 12-HETE formation,"[1]; 25 μM, arachidonic acid 10 μM, due to contaminating platelets",increment in 15-HETE and 12-HETE
same,concentration of biosynthesis products versus concentration of the drug,"[1]; LTB4, 6-trans-LTB4, 5-HETE, 20-OH-LTB4, FIGS. 3 and 4",decreased in approximately linear with the concentration of the drug used
same,concentration required for a given inhibition relative to benoxaprofen or ketaconozale,[1]; ratio from IC50,approximately one tenth; also recorded: ten times smaller
same,inhibition at 25 µM,"[1]; read-out: 5-LO inhibitory activity, approximate inhibition percentage",100%
same,"gradient of decrease of 5-LO products with concentration, compared with the other two drugs","[1]; versus benoxaprofen and ketoconazole, FIGS. 3 and 4",gradients were greater
same,response,[2],very good response within 1 or 2 weeks
same,cyclooxygenase inhibiting activity,[3],some cyclooxygenase inhibiting activity
same,chronic toxicity in rats,[4],not observed
same,"secondary or adverse effects (mucosal or skin irritation, unpleasant smells)","[5]; 2% shampoo, topical",absence of secondary or adverse effects
same,"scabs, greasiness, seborrheic odor, erithema and pruritus","[5]; 2% shampoo, all animals except one with dermatophytosis","a lowering of the scabs, disappearance of the greasiness and the seborrheic odor, disappearance of the erithema and the pruritus was observed"
same,result in idiopathic seborrheic dermatitis,"[5]; 2% shampoo, improvement similar to oral therapy of corticoids",excellent
same,result in secondary seborrheic dermatitis,[5]; Bobel-24 shampoo,"the shampoo improves the aspect of the fur, but does not combat the ethiological agent responsible for the disease"
same,"Evolution, etiology hypothyroidism","[5]; weekly bath 2% shampoo, 15 days, Cocker A 9 years",++
same,"Evolution, etiology leishmaniosis","[5]; weekly bath 2% shampoo, 15 days, Cocker S 8 years",++
same,"Evolution, etiology demodex","[5]; weekly bath 2% shampoo, 15 days, Mongrel 4 years",++
same,"Evolution, etiology allergic to fleas",[5]; [8],++
same,"Evolution, etiology dermatophytes",[5]; [8],-
same,"Evolution, etiology follicular cyst","[5]; weekly bath 2% shampoo, 15 days, Yorkshire 7 years",++
same,"Evolution, etiology idiopathic","[5]; weekly bath 2% shampoo, 15 days, b367 Cocker A 13, b393 Cocker S 15, b394 Cocker S 12 years",+++
same,"Evolution, etiology pyoderma","[5]; weekly bath 2% shampoo, 15 days, b373 Pekinese 2, b396 German shepherd 10 years",++
same,"Evolution, etiology dermatomycosis","[5]; weekly bath 2% shampoo, 15 days, b381 Schnauzer 3, b387 German shepherd 1 year",++
same,reduction in inflammation,[6],a reduction in the inflammation was obtained
same,LD50,[7],1500 mg/kg
